According to patent publication US10793576B2, “Compound used as Bruton's tyrosine kinase inhibitor and preparation method and application thereof” (Chengdu Brilliant Pharmaceutical Co., LTD., priority 2017, dated 2020):
Where two headings read alike, the source gives them in different places.

Columns and labels:
DOHH2 cells = test: Cell proliferation inhibition in vitro, DOHH2 cells by CTG assay; format: cell-based; conditions: read-out: Inhibitions of cell activities IC50 (nM) DOHH2
Experimental: (§1) Test Example 2: Determination of the Inhibition of Cell Proliferation Inhibitory Activity in
(§2) vitro of compounds using different cell lines
(§3) 2: Preparation of the Compounds:
(§4) The compounds to be tested were diluted with DMSO to prepare a mother liquor at a final concentration of 10 mM for later use.
3.2 Test of DOHH2 Cells by CTG Assay
(§5) Logarithmic growth phase cells were collected, counted and resuspended in complete medium. The cell concentration was adjusted to a suitable concentration (determined according to the cell density optimization test results), and seeded to 96-well plate and 100 μl of the cell suspension was added to each well. The cells were incubated in an incubator at 37° C., 100% relative humidity and 5% C02 for 24 hours.
The compounds to be tested were diluted with the medium to the set corresponding action concentration, and the cells were added at 10 µl/well. The cells were incubated in an incubator set at 37° C., 100% relative humidity and 5% C02 for 72 hours.
The medium was aspirated and discarded, and 30 μl of test reagent was added. The plate was gentle shaken away from the light to lyse the cells.
(§6) As: OA of the sample (cell+test reagent+test compound)
(§7) Ac: OA of the negative control (cell+test reagent+DMSO)
(§8) Ab: OA of the positive control (medium+test reagent+DMSO)
(§9) IC50 curve fitting was performed using the software Graphpad Prism 5 or XLfit and IC50 values were calculated.

BTK kinase = BTK kinase (Homo sapiens (Human), UniProt Q06187); test: In vitro assay for the inhibition of BTK kinase activity (Mobility-Shift Assay); format: biochemical
Sequence of BTK kinase (Q06187 whole entry): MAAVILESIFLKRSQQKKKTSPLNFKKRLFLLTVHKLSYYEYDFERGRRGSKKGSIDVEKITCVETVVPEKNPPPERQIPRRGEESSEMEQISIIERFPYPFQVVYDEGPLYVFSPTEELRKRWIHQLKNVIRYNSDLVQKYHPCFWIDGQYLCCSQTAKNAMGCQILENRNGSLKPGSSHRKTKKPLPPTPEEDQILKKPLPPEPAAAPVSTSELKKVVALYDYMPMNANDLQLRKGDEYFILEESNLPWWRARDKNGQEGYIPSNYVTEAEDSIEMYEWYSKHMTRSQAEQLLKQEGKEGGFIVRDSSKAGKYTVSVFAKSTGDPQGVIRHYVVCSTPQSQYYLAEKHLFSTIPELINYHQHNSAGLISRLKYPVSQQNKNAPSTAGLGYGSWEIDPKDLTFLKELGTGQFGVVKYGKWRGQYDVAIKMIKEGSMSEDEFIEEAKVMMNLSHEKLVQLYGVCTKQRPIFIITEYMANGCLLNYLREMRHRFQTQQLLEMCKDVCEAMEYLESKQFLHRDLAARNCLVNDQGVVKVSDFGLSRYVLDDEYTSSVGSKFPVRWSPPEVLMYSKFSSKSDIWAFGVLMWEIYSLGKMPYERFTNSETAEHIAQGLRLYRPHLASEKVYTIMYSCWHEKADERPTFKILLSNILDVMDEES
Excerpt: Mobility-Shift Assay, which is microfluidic chip technology, applies the basic concept of capillary electrophoresis to microfluidic environments. The substrate used for the experiment is a polypeptide with a fluorescent label. Under the action of enzyme in the reaction system, the substrate is transformed into a product, and the charge the substrate carries also changes accordingly. The use of the charge difference between the substrate and the product involved in Mobility-Shift Assay achieves the separating of the two, and they are tested respectively. The test results are expressed by conversion rates.
(3) 100% DMSO was added to the positive control well and the negative control well, respectively;

TMD8 cells = test: Cell proliferation inhibition in vitro, TMD8 cells by CCK-8 method; format: cell-based; conditions: 72 hours, read-out: Inhibitions of cell activities IC50 (nM) TMD8
Experimental: as §1, §2, §3, §4
(§10) 3.1. Test of TMD8 and OCI-ly10 Cells by CCK-8 Method
as §5
(§11) The compounds to be tested were diluted with the medium to the set corresponding action concentration, and the cells were added at 25 µl/well. The cells were incubated in an incubator at 37° C., 100% relative humidity and 5% C02 for 72 hours.
(§12) The medium was aspirated and discarded, and a complete medium containing 10% of the test reagent was added and the obtained system was incubated in a 37° C. incubator for 1 hour-4 hours.
as §6, §7, §8, §9

OCI-LY10 cells = test: Cell proliferation inhibition in vitro, OCI-ly10 cells by CCK-8 method; format: cell-based; conditions: 72 hours, read-out: Inhibitions of cell activities IC50 (nM) OCI-LY10
Experimental: as §1, §2, §3, §4, §10, §5, §11, §12, §6, §7, §8, §9

| SMILES | IC50 (BTK kinase) [nM] | further results |
| --- | --- | --- |
| C=CC(=O)N1C2C[C@@H](C1c1nc(-c3ccc(Oc4ccccc4)cc3)c3c(N)nccn13)N(C)C2 (some centres unmarked) [Example 108] | 72 | IC50 (DOHH2 cells; Homo sapiens, DOHH-2, 72 hours): > 1000 nM; IC50 (TMD8 cells; Homo sapiens): 14.3 nM; IC50 (OCI-LY10 cells; Homo sapiens): 2.7 nM |
| C=CC(=O)N1C(c2nc(-c3ccc(C(=O)Nc4ccccn4)cc3)c3c(N)nccn23)[C@@H]2C[C@H]1CN2C(=O)OC(C)(C)C (stereo partly drawn) [Example 126, (1 S,4S)-tert-butyl-5-acryloyl-6-(8-amino-1-(4-(pyridin-2-carbamoyl)phenyl)imidazo[1,5-a]pyrazin-3-yl)-2,5-diazabicyclo[2.2.1]heptane-2-carboxylate] | 4.4 | IC50 (DOHH2 cells; 72 hours): 206 nM; IC50 (TMD8 cells): 1.6 nM; IC50 (OCI-LY10 cells): 0.8 nM |
| CC#CC(=O)N1C(c2nc(-c3ccc(Oc4ccccc4)cc3)c3c(N)nccn23)CC2CC21 (centres unmarked) [Example 101] | 77 |  |
| CC#CC(=O)N1CCC2CC21c1nc(-c2ccc(C(=O)Nc3ccccn3)cc2)c2c(N)nccn12 (centres unmarked) [Example 33] | 94 |  |
| CC#CC(=O)N1C(c2nc(-c3ccc(C(C)(O)c4ccccc4)cc3)c3c(N)nccn23)CC2CC21 (centres unmarked) [Example 82] | 382 |  |
| CC#CC(=O)N1CC2C[C@H]1C(c1nc(-c3ccc(C(=O)Nc4ccccn4)cc3)c3c(N)nccn13)N2 (some centres unmarked) [Example 21] | 672 |  |
| C=CC(=O)N1CCC2(CC2c2nc(-c3ccc(C(=O)Nc4ccccn4)cc3)c3c(N)nccn23)C1 (centres unmarked) [Example 30] | 724 |  |
| CC(C)/C=C(/C#N)C(=O)N1CC2(CC2)C[C@H]1c1nc(-c2ccc(C(=O)Nc3ccccn3)cc2)c2c(N)nccn12 [Example 116, (S,Z)-4-(8-amino-3-(5-(2-cyano-4-methyl-2-pentenoyl)-5-azaspiro [2.4]heptan-6-yl)imidazo[1,5-a]pyrazin-1-yl)-N-(pyridin-2-yl)benzamide] | 276 |  |
| C=CC(=O)N1C[C@@H]2C[C@]1(c1nc(-c3ccc(C(=O)Nc4ccccn4)cc3)c3c(N)nccn13)CCO2 [Example 7] | 155 |  |
| C=CC(=O)N1CC2(CCNCC2)CC1c1nc(-c2ccc(C(=O)Nc3ccccn3)cc2)c2c(N)nccn12 (centres unmarked) [Example 36] | 93 |  |
| C=CC(=O)N1CCC2CC21c1nc(-c2ccc(Oc3ccccc3)cc2)c2c(N)nccn12 (centres unmarked) [Example 102] | 175 |  |
| C=CC(=O)N1C(c2nc(-c3ccc(C(C)(O)c4ccccc4)cc3)c3c(N)nccn23)CC2CC21 (centres unmarked) [Example 81] | 178 |  |
| CC#CC(=O)N1CCC2CC21c1nc(-c2ccc(Oc3ccccc3)cc2)c2c(N)nccn12 (centres unmarked) [Example 103] | 271 |  |
| C=CC(=O)N1CC2C[C@H]1C(c1nc(-c3ccc(C(=O)Nc4ccccn4)cc3)c3c(N)nccn13)N2C(C)=O (some centres unmarked) [Example 20] | 372 |  |
| C=CC(=O)N1C2CN[C@@H](C2)C1c1nc(-c2ccc(C(=O)Nc3cc(Cl)ccn3)cc2)c2c(N)nccn12 (some centres unmarked) [Example 72] | 97 |  |
| CC#CC(=O)N1CCC2CC21c1nc(-c2ccc(C(=O)Nc3cc(C(F)(F)F)ccn3)cc2)c2c(N)nccn12 (centres unmarked) [Example 59] | 97 |  |
| CN(C/C=C/C(=O)N1CC2(CC2)C[C@H]1c1nc(-c2ccc(C(=O)Nc3ccccn3)cc2)c2c(N)nccn12)C1CC1 [Example 114, (S,E)-4-(8-amino-3-(5-(4-(cyclopropyl(methyl)amino)-2-butenoyl)-5-azaspiro[2.4]heptan-6-yl)imidazo[1,5-a]pyrazin-1-yl)-N-(pyridin-2-yl)benzamide] | 81 |  |
| CC#CC(=O)N1CC2(CC2)C[C@H]1c1nc(-c2ccc(C(=O)Nc3cc(C(F)(F)F)ccn3)cc2)c2c(N)nccn12 [Example 40, (S)-4-(8-amino-3-(5-(but-2-ynoyl)-5-azaspiro[2.4]heptan-6-yl)imidazo[1,5-a]pyrazin-1-yl 1)-N-(4-(trifluoromethyl)pyridin-2-yl)benzamide] | 97 |  |
| C=CC(=O)NC12CC3CC(C1)CC(c1nc(-c4ccc(C(=O)Nc5ccccn5)cc4)c4c(N)nccn14)(C3)C2 [Example 28] | 124 |  |
| C=CC(=O)N1CCC2CC21c1nc(-c2ccc(C(=O)Nc3cc(C(F)(F)F)ccn3)cc2)c2c(N)nccn12 (centres unmarked) [Example 58] | 78 |  |
| C=CC(=O)N1C(c2nc(-c3ccc(C(=O)Nc4cc(C)ccn4)cc3)c3c(N)nccn23)CC2CC21 (centres unmarked) [Example 64] | 87 |  |
| CC#CC(=O)N1CCC2(CC1)CC(c1nc(-c3ccc(C(=O)Nc4ccccn4)cc3)c3c(N)nccn13)CO2 (centres unmarked) [Example 27] | 673 |  |
| CC#CC(=O)N1CC2(CC2)C[C@H]1c1nc(-c2ccc(C(=O)Nc3ccccn3)cc2)c2c(N)nccn12 [Example 1, (S)-4-(8-amino-3-(5-(but-2-ynoyl)-5-azaspiro[2.4]heptan-6-yl)imidazo[1,5-a]pyrazin-1-yl)-N-(pyridin-2-yl)benzamide] | 83 | IC50 (DOHH2 cells; Homo sapiens, DOHH-2, 72 hours): > 1000 nM |

Continued, in another order:

| IC50 (BTK kinase) [nM] | SMILES | further results |
| --- | --- | --- |
| 4.5 | CC#CC(=O)N1CC2CCCC2C1c1nc(-c2ccc(C(=O)Nc3ccccn3)cc2)c2c(N)nccn12 (centres unmarked) [Example 4] | IC50 (DOHH2 cells; Homo sapiens, DOHH-2, 72 hours): 673 nM; IC50 (TMD8 cells; Homo sapiens): 2.1 nM; IC50 (OCI-LY10 cells; Homo sapiens): 3.5 nM |
| 2.3 | C=CC(=O)N1C2C[C@@H](C1c1nc(-c3ccc(C(=O)Nc4cc(C(F)(F)F)ccn4)cc3)c3c(N)nccn13)N(C(C)C)C2 (some centres unmarked) [Example 55] | IC50 (DOHH2 cells; Homo sapiens, DOHH-2, 72 hours): 97 nM; IC50 (TMD8 cells; Homo sapiens): 0.48 nM; IC50 (OCI-LY10 cells; Homo sapiens): 1.87 nM |
| 57 | C=CC(=O)N1CCC2CC21c1nc(-c2ccc(C(=O)Nc3ccccn3)cc2)c2c(N)nccn12 (centres unmarked) [Example 32] | IC50 (DOHH2 cells; Homo sapiens, DOHH-2, 72 hours): > 1000 nM |
| 29 | C=CC(=O)N1C2CN[C@@H](C2)C1c1nc(-c2ccc(C(C)(O)c3ccccc3)cc2)c2c(N)nccn12 (some centres unmarked) [Example 86] | IC50 (DOHH2 cells; Homo sapiens, DOHH-2, 72 hours): 917 nM |
| 69 | CC#CC(=O)N1C2CN[C@@H](C2)C1c1nc(-c2ccc(C(=O)Nc3cc(C)ccn3)cc2)c2c(N)nccn12 (some centres unmarked) [Example 67] | IC50 (DOHH2 cells; Homo sapiens, DOHH-2, 72 hours): > 1000 nM |
| 42 | CC#CC(=O)N1C2CN[C@@H](C2)C1c1nc(-c2ccc(C(C)(O)c3ccccc3)cc2)c2c(N)nccn12 (some centres unmarked) [Example 87] | IC50 (DOHH2 cells; Homo sapiens, DOHH-2, 72 hours): 786 nM |
| 59 | CC#CC(=O)N1C2C[C@@H](C1c1nc(-c3ccc(C(=O)Nc4cc(C(F)(F)F)ccn4)cc3)c3c(N)nccn13)N(C(C)C)C2 (some centres unmarked) [Example 57] |  |
| 67 | C=CC(=O)N1C(c2nc(-c3ccc(Oc4ccccc4)cc3)c3c(N)nccn23)CC2CC21 (centres unmarked) [Example 100] |  |
| 57 | CC#CC(=O)N1C2CC[C@@H](C2)C1c1nc(-c2ccc(C(=O)Nc3cc(C)ccn3)cc2)c2c(N)nccn12 (some centres unmarked) [Example 63] |  |
| 48 | CC#CC(=O)N1C2C[C@@H](C1c1nc(-c3ccc(C(=O)Nc4ccccn4)cc3)c3c(N)nccn13)N(C(C)C)C2 (some centres unmarked) [Example 17] | IC50 (DOHH2 cells; Homo sapiens, DOHH-2, 72 hours): > 1000 nM |
| 24 | C=CC(=O)N1CC2(CC2)C[C@H]1c1nc(-c2ccc(C(=O)Nc3ccccn3)cc2)c2c(N)nccn12 [Example 2, (S)-4-(3-(5-acryloyl-5-azaspiro[2.4]heptan-6-yl)-8-aminoimidazo[1,5-a]pyrazin-1-yl)-N-(pyridin-2-yl)benzamide] | IC50 (DOHH2 cells; Homo sapiens, DOHH-2, 72 hours): 917 nM |
| 31 | CC#CC(=O)N1C[C@H]2[C@@H]([C@H]1c1nc(-c3ccc(C(=O)Nc4cc(C)ccn4)cc3)c3c(N)nccn13)C2(C)C [Example 61] |  |
| 18.4 | CC#CC(=O)N1CC2CCCC2C1c1nc(-c2ccc(C(C)(O)c3ccccc3)cc2)c2c(N)nccn12 (centres unmarked) [Example 78] |  |
| 51 | C=CC(=O)N1C[C@H]2[C@@H]([C@H]1c1nc(-c3ccc(C(=O)Nc4cc(C)ccn4)cc3)c3c(N)nccn13)C2(C)C [Example 60] |  |
| 66 | C=CC(=O)N1CC2COC[C@]2(c2nc(-c3ccc(C(=O)Nc4ccccn4)cc3)c3c(N)nccn23)C1 (some centres unmarked) [Example 38] |  |
| 54 | CC#CC(=O)N1C(c2nc(-c3ccc(C(=O)Nc4cc(C(F)(F)F)ccn4)cc3)c3c(N)nccn23)CC2CC21 (centres unmarked) [Example 51] |  |
| 68 | CC#CC(=O)N1CC2COC[C@]2(c2nc(-c3ccc(C(=O)Nc4ccccn4)cc3)c3c(N)nccn23)C1 (some centres unmarked) [Example 39] |  |
| 34 | C=CC(=O)N1C2CN[C@@H](C2)C1c1nc(-c2ccc(C(=O)Nc3cc(C)ccn3)cc2)c2c(N)nccn12 (some centres unmarked) [Example 66] | IC50 (DOHH2 cells; Homo sapiens, DOHH-2, 72 hours): > 1000 nM |
| 46 | CC#CC(=O)N1CCC2CC21c1nc(-c2ccc(C(C)(O)c3ccccc3)cc2)c2c(N)nccn12 (centres unmarked) [Example 83] |  |
